system: T3G1; assay: Substrate conversion (oxyfunctionalization) by purified enzyme T3G1 with H2O2; assay type: biochemical, Proteobacteria bacterium; details: 1 mM substrate, 2 mM H2O2 (1 mM at start, to 2 mM after 90 min), 7 μM enzyme T3G1 (5 + 2 μM)
Text: This prompted us to test the representative enzyme T3G1 against a large panel of various substrates.

Row | Compound | % conversion
1 | CCc1ccccc1 [ethylbenzene] | trace
2 | CC/C=C/CC [trans-3-hexene] | 40%
3 | C=CCCCC [Substrate 1-hexene, 1-hexene] | trace
4 | C=C(C)C1CC=C(C)CC1 (single isomer, unassigned; (+)) [(+)-limonene] | 81%
5 | CC(=O)CCC1C(C)=CCCC1(C)C (stereo not drawn) [7,8-dihydro-α-ionone] | 50%
6 | C/C=C/CCCCC [trans-2-octene] | 99%
7 | CC(C)NCC(O)COc1cccc2ccccc12 (centres unmarked) [propanolol, reference compound] | 5%
8 | C/C=C\CCCC [cis-2-heptene] | 81%
9 | CC/C=C/CCCC [trans-3-octene] | 99%
10 | CC=Cc1ccccc1 [β-methyl-styrene] | 86%
11 | C[C@]12CCC(=O)C=C1CCC2=O [(S)-Hajos-Wiechert ketone] | trace
12 | C/C=C\CCC [cis-2-hexene] | trace
13 | C=CCCCCCC [Substrate 1-octene, 1-octene] | 65%
14 | C=CCCCCCCC=C [1,9-decadiene] | 15%
15 | CSc1ccccc1 [thioanisole] | 40%
16 | C=C(C)CC [2-methyl-1-butene] | trace
17 | COc1cc(C)ccc1O [creosol] | trace
18 | C/C=C/C(=O)C1C(C)C=CCC1(C)C (centres unmarked) [δ-damascone] | 16%
19 | C=C(C)[C@@H]1CCC2=CCC[C@@H](C)[C@]2(C)C1 [valencene] | 3%

Row | Compound | % conversion
20 | C=CCCCCC [Substrate 1-heptene, 1-heptene] | trace
21 | (−)-carveol | 4%
22 | C1=Cc2ccccc2C1 [indene] | 27%
23 | CC1=CCCC(C)(C)C1/C=C/C(C)O (stereo not drawn) [α-ionol] | 61%
24 | CCC/C=C/CCC [trans-4-octene] | 99%
25 | C=CCCCCCCCC [Substrate 1-decene, 1-decene] | 13%
26 | C/C=C\C(=O)C1C(C)=CCCC1(C)C (stereo not drawn) [α-damascone] | 26%
27 | CC12CCC(=O)C=C1CCCC2=O (centres unmarked) [Wieland-miescher ketone] | 10%
28 | C=Cc1ccccc1 [styrene] | 61%
29 | C/C=C/CCC [trans-2-hexene] | trace
30 | CC(=O)/C=C/C1C(C)=CCCC1(C)C (stereo not drawn) [α-ionone] | 61%
31 | C1=C\CCCCCC/1 [cis-cyclooctene] | 83%
32 | CCCCCCCC/C=C\CCCCCCCC(=O)O [oleic acid] | 19%
33 | C=CC(=C)C [2-methyl-1,3-butadiene] | trace
34 | C1=CCCCC1 [cyclohexene] | 32%
35 | terpinene | 73%
36 | CC(=O)/C=C/C1=C(C)CCCC1(C)C [trans-β-ionone] | 48%
37 | C(=C\c1ccccc1)/c1ccccc1 [trans-stilbene] | 17%

same assay, conditions: 1 mM substrate, 2 mM H2O2, 7 μM T3G1

Row | Compound | % cis (of product, printed beside % conversion) | % double epoxide [% double epoxide] | % ee (printed beside % conversion)
38 | C=C(C)C1CC=C(C)CC1 (single isomer, unassigned; (+)) [(+)-limonene] | (97.3% cis) | – | –
39 | C=CCCCCCCC=C [1,9-decadiene] | – | 13 | –
40 | CSc1ccccc1 [thioanisole] | – | – | (74% ee)
41 | C=Cc1ccccc1 [styrene] | – | – | (17% ee)

Reference: patent publication US20240318150A1, “METHODS FOR OXYFUNCTIONALIZATION OF VARIOUS SUBSTRATES USING BACTERIAL ENZYMES” (GECCO Biotech B.V., priority 2021, published 2024)
